Legend:
Caspase-6 = Caspase-6 (Homo sapiens (Human), UniProt P55212); test: Fluorometric enzymatic assay, active recombinant Caspase-6; format: biochemical
Protocol: (§1) . In brief, each compound was serially diluted for a final test concentration range of 0.1 nM to 3.3 μM (10-point titration). Each active recombinant Caspase (Active Recombinant Caspase Set IV™ (BioVision, Cat# K233-10-25)) was added to the respective wells of the 96-well High Efficiency™ plates (Molecular Devices, Cat#75-000-0005), followed by the addition of the diluted test compounds. DMSO (Final=1%) or Z-VAD-FMK (Caspase-Family Inhibitor, Z-VAD-FMK (BioVision, Cat#1010-100), Final concentration=20 uM) was added in the designated wells as a background control or positive inhibitor control respectively. Each dilution of the test compounds was tested in duplicates, whereas the DMSO or Z-VAD-FMK controls were tested in triplicates. The synthetic peptide substrate specific for each Caspase (BioVision) was then added to the respective wells, which when cleaved by the active caspase releases free AFC that can be quantified by fluorometry. After a 30-minute incubation at 37° C., the plates were read using the Flexstation 3™ with a 400 nm excitation filter and a 505 nm emission filter (cutoff at 495 nm). The inhibition efficiency and the IC50 values of the test compounds were then determined by comparing the fluorescence intensity (FI) of the test compounds with that of the DMSO control.
(§2) The SoftMax Pro Software™ (v5.2 rev C, Molecular Devices) was used for data analysis. The % Inhibition is calculated by: % Inhibition=[FI(DMSO)−FI(test sample)/FI(DMSO)]×100. The % Inhibition vs. Log(concentration) was plotted, and the curve was fitted using the 5-parameter fit of the software.

Caspase-4 = Caspase-4 (Homo sapiens (Human), UniProt P49662); test: Fluorometric enzymatic assay, active recombinant Caspase-4
Protocol: (§3) Each dilution of the test compounds was tested in duplicates, whereas the DMSO or Z-VAD-FMK controls were tested in triplicates. […] The inhibition efficiency and the IC50 values of the test compounds were then determined by comparing the fluorescence intensity (FI) of the test compounds with that of the DMSO control.

Caspase-9 = Caspase-9 (Homo sapiens (Human), UniProt P55211); test: Fluorometric enzymatic assay, active recombinant Caspase-9; details: FIG. 5
Protocol: as §3

Caspase-7 = Caspase-7 (Homo sapiens (Human), UniProt P55210); test: Fluorometric enzymatic assay, active recombinant Caspase-7
Protocol: as §3

Caspase-10 = Caspase-10 (Homo sapiens (Human), UniProt Q92851); test: Fluorometric enzymatic assay, active recombinant Caspase-10
Protocol: as §3

Caspase-5 = Caspase-5 (Homo sapiens (Human), UniProt P51878); test: Fluorometric enzymatic assay, active recombinant Caspase-5; format: biochemical
Protocol: as §1, §2

Caspase-2 = Caspase-2 (Homo sapiens (Human), UniProt P42575); test: Fluorometric enzymatic assay, active recombinant Caspase-2; format: biochemical
Protocol: as §1, §2

Caspase-8 = Caspase-8 (Homo sapiens (Human), UniProt Q14790); test: Fluorometric enzymatic assay, active recombinant Caspase-8; format: biochemical
Protocol: as §1, §2

Caspase-1 = Caspase-1 (Homo sapiens (Human), UniProt P29466); test: Fluorometric enzymatic assay, active recombinant Caspase-1
Chain of Caspase-1 (P29466 whole entry, looked up): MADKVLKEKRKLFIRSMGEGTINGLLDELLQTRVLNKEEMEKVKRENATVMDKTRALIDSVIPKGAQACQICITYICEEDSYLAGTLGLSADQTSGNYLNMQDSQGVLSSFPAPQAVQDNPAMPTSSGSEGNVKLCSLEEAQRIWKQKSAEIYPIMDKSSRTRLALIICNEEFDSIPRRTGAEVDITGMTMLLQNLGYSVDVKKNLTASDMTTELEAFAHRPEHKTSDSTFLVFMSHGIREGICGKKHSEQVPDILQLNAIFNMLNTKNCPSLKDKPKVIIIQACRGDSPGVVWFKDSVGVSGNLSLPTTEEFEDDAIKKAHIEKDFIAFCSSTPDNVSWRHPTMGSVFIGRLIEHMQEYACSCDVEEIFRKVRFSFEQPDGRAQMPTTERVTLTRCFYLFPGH
Chain of Caspase-1 (P29466 whole entry, looked up): as above
Protocol: as §3

Chain of Caspase-10 (Q92851 220-415): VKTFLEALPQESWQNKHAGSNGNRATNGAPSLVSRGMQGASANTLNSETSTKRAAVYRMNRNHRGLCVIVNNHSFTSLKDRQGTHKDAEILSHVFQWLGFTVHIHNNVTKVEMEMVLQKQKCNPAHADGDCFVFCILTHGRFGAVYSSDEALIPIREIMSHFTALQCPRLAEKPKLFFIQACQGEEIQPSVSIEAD
Chain of Caspase-10 (Q92851 416-521): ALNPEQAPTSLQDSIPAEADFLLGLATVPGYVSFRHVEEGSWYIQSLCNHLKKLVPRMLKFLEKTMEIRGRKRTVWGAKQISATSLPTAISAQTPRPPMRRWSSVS
Chain of Caspase-2 (P42575 170-325): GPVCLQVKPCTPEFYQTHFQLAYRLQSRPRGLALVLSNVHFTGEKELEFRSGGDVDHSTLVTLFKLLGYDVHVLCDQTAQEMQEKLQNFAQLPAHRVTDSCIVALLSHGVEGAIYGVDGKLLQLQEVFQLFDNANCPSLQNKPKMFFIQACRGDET
Chain of Caspase-2 (P42575 348-452): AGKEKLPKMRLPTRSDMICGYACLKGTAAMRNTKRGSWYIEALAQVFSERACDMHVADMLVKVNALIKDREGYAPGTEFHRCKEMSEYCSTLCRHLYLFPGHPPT
Chain of Caspase-4 (P49662 81-270): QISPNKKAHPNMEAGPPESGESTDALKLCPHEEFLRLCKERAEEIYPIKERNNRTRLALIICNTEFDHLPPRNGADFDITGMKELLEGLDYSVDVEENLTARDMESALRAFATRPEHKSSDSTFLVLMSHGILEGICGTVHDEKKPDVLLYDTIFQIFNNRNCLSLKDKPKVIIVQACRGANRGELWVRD
Chain of Caspase-4 (P49662 290-377): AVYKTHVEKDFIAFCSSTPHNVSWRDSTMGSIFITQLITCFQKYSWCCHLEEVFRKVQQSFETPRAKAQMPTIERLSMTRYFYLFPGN
Chain of Caspase-8 (Q14790 217-374): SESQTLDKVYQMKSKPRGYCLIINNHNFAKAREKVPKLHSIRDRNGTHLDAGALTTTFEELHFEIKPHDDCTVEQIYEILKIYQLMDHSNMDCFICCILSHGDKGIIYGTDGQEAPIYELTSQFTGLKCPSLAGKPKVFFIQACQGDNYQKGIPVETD
Chain of Caspase-8 (Q14790 385-479): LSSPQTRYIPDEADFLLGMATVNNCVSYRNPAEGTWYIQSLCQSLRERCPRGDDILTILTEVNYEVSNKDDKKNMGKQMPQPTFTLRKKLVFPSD
Chain of Caspase-5 (P51878 whole entry, looked up): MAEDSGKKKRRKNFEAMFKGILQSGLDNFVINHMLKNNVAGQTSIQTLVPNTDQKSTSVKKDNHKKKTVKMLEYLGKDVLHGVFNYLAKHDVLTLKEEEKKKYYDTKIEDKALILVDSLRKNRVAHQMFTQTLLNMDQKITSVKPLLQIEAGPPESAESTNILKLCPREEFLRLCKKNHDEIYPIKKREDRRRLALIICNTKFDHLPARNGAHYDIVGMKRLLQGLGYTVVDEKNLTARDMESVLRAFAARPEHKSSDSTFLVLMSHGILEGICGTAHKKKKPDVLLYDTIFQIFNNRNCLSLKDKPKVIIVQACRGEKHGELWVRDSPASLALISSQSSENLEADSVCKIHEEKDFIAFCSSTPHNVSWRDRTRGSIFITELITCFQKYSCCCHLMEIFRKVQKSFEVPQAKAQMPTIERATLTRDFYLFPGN
Chain of Caspase-5 (P51878 whole entry, looked up): as above
Chain of Caspase-6 (P55212 24-179): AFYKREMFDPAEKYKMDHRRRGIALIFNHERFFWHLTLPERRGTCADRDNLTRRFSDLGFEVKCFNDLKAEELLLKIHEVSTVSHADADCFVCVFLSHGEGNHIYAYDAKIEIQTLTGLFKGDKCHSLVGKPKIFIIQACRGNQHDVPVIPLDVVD
Chain of Caspase-6 (P55212 194-293): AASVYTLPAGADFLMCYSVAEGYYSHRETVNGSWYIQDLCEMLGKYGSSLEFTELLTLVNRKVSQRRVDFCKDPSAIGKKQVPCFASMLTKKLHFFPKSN
Chain of Caspase-7 (P55210 whole entry, looked up): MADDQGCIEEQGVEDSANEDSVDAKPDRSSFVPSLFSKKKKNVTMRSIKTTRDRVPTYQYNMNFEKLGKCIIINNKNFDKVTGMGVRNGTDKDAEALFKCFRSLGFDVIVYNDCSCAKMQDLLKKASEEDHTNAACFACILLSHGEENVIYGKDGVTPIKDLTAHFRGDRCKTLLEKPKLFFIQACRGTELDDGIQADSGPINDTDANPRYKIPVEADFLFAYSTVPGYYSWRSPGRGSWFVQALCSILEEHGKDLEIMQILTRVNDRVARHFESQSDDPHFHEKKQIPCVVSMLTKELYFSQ
Chain of Caspase-7 (P55210 whole entry, looked up): as above
Chain of Caspase-9 (P55211 whole entry, looked up, change not shown): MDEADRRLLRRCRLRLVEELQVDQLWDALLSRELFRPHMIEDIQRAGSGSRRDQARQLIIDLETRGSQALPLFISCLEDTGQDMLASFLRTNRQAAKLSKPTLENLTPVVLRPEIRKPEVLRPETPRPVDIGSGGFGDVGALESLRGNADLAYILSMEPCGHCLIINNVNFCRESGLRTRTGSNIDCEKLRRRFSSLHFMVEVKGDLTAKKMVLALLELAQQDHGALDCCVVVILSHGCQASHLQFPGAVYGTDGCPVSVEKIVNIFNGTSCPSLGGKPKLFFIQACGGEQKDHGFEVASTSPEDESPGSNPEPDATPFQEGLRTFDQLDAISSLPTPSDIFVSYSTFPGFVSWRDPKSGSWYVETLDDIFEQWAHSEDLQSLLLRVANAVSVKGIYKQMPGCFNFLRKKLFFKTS
Chain of Caspase-9 (P55211 whole entry, looked up, change not shown): as above

Question: For COC(=O)CC[C@H](NC(=O)[C@H](CC(=O)OC)NC(=O)OCc1ccccc1)C(=O)N[C@H](C(=O)N[C@@H](CC(=O)OC)C(=O)CF)C(C)C [Z-DEVD-FMK, z-D(OMe)E(OMe)VD(OMe)FMK, reference compound], which IC50 (Caspase-6) is on record?
Answer: The IC50 was > 3330 nM.

Question: And the “inhibitory activity towards Caspase-6” value (Caspase-6; FIG. 5)?
Answer: The value was “negligible”.

Question: What about the IC50 (Caspase-4) of the same compound?
Answer: Its IC50 is 2500 nM.

Question: What about the “inhibitory activity towards Caspase-4” value (Caspase-4; FIG. 5) of the same compound?
Answer: Its value is “inhibitory activity”.

Question: And the “inhibitory activity towards Caspase-9” value (Caspase-9)?
Answer: The value was “inhibitory activity”.

Question: What about the IC50 (Caspase-7) of the same compound?
Answer: Its IC50 is > 3330 nM.

Question: And the IC50 (Caspase-10)?
Answer: Its IC50 is 2700 nM.

Question: What about the “inhibitory activity towards Caspase-10” value (Caspase-10; FIG. 5) of the same compound?
Answer: The value was “inhibitory activity”.

Question: What about the IC50 (Caspase-5) of the same compound?
Answer: The IC50 was > 3330 nM.

Question: And the “inhibitory activity towards Caspase-5” value (Caspase-5; FIG. 5)?
Answer: Its value is “negligible”.

Question: And the IC50 (Caspase-2)?
Answer: The IC50 was > 3330 nM.

Question: What about the “inhibitory activity towards Caspase-2” value (Caspase-2; FIG. 5) of the same compound?
Answer: The value was “negligible”.

Question: And the IC50 (Caspase-8)?
Answer: Its IC50 is 1600 nM.

Question: And the “inhibitory activity towards Caspase-8” value (Caspase-8; FIG. 5)?
Answer: The value was “inhibitory activity”.

Question: And the IC50 (Caspase-1)?
Answer: Its IC50 is 700 nM.

Question: And the “inhibitory activity towards Caspase-1” value (Caspase-1; FIG. 5)?
Answer: Its value is “inhibitory activity”.

Source: patent publication US9045524B2, “Selective caspase inhibitors and uses thereof” (NOVAGENESIS FOUNDATION, priority 2009, dated 2015)
